Ends that are not written are not given here.
Tests used:
[1] = test system: human bronchial epithelial cells (BEAS-2B)
Procedure: The cytotoxicity of 73 synthetic peptides was evaluated using four human cell lines: human pancreatic ductal epithelial cells (HPNE), human embryonic kidney cells (HEK293T), human umbilical vein endothelial cells (HUVEC), and human bronchial epithelial cells (BEAS-2B). When cell density reached 70% confluence, the complete culture medium was replaced with serum-free maintenance medium, and peptides were added at a final concentration of 100 μM for 36 h. Control groups received only serum-free maintenance medium without peptides. Cell proliferation was assessed using the CCK-8 assay kit (Solarbio, CA1210) according to the manufacturer’s instructions.

[2] = Electronic tongue analysis (Taste-Sensing System SA 402B); design: unit not given here; details: reference solution 30 mM KCl + 0.3 mM tartaric acid as baseline, first measurement excluded; for Umami: sensor AAE; for Umami / Bitter / Sweet: detection threshold 0, room temperature; for Umami / Bitter / Sour / Salty: four replicates; for Sour: detection threshold -13, room temperature; for Salty: detection threshold -6, room temperature; for Sweet: measured five times
Procedure: Taste characteristics were analyzed using the electronic tongue system E-tongue (Taste-Sensing System SA 402B, Intelligent Sensor Technology Co. Ltd., Japan). The system was equipped with five specific sensor probes for detecting sourness (CA0), saltiness (CT0), bitterness (C00), sweetness (GL1), and umami (AAE). Samples were tested at concentrations of 0.1 mg/mL and 1.0 mg/mL. Prior to experiments, sensors were activated by immersion in a reference solution (30 mM KCl and 0.3 mM tartaric acid) for 24 h. A 30 min self-diagnostic procedure was performed before each measurement to ensure data accuracy. The reference solution served both as a cleaning solution and standard solution for taste signal calibration. According to the manufacturer’s instructions, using the reference solution as baseline, the detection thresholds were set at −13 for sourness, −6 for saltiness, and 0 for other taste modalities. Two cleaning solutions were employed for electrode maintenance: (1) 30% ethanol solution containing 100 mM HCl for negative charge reference electrodes, and (2) 30% ethanol solution containing 100 mM KCl and 10 mM KOH for positive charge reference electrodes. All taste measurements were performed at room temperature with four replicates, except for sweetness which was measured five times. The first measurement data were excluded from analysis.

[3] = test system: human umbilical vein endothelial cells (HUVEC)
[4] = test system: human pancreatic ductal epithelial cells (HPNE)
[5] = test system: human embryonic kidney cells (HEK293T)

Row | Substance | Average cell viability, BEAS-2B [1] | Cell viability, BEAS-2B, Data1 [1] | Cell viability, BEAS-2B, Data2 [1] | Cell viability, BEAS-2B, Data3 [1] | Umami ([2]; peptide 0.1 mg/mL) | Umami ([2]; peptide 1 mg/mL) | Bitter ([2]; sensor C00, peptide 0.1 mg/mL) | Bitter ([2]; sensor C00, peptide 1 mg/mL) | Sour ([2]; sensor CA0, peptide 0.1 mg/mL) | Sour ([2]; sensor CA0, peptide 1 mg/mL) | Salty ([2]; sensor CT0, peptide 0.1 mg/mL) | Salty ([2]; sensor CT0, peptide 1 mg/mL) | Sweet ([2]; sensor GL1, peptide 0.1 mg/mL) | Sweet ([2]; sensor GL1, peptide 1 mg/mL) | Average cell viability, HUVEC [3] | Cell viability, HUVEC, Data1 [3] | Cell viability, HUVEC, Data2 [3] | Cell viability, HUVEC, Data3 [3] | Average cell viability, HPNE [4] | Cell viability, HPNE, Data1 [4] | further results
1 | AEDNSL [TaPep43] | 108.94 | 119.14 | 93.72 | 113.96 | 1.07 | -5.11 | 7.83 | 4.00 | -1.87 | 12.46 | -20.35 | 7.60 | 5.59 | -3.45 | 103.73 | 104.42 | 115.43 | 91.33 | 110.25 | 117.40 | Cell viability, HPNE, Data2 [4]: 99.83; Cell viability, HPNE, Data3 [4]: 113.51; Average cell viability, HEK293T [5]: 98.86; Cell viability, HEK293T, Data1 [5]: 96.72; Cell viability, HEK293T, Data2 [5]: 102.11; Cell viability, HEK293T, Data3 [5]: 97.76
2 | AGDAW [TaPep30] | 116.78 | 115.45 | 115.55 | 119.34 | 1.69 | -4.59 | 7.53 | 3.18 | -3.43 | 12.02 | -20.28 | 11.18 | 5.66 | -6.46 | 102.13 | 114.08 | 97.39 | 94.92 | 103.96 | 100.43 | Cell viability, HPNE, Data2 [4]: 106.72; Cell viability, HPNE, Data3 [4]: 104.73; Average cell viability, HEK293T [5]: 110.47; Cell viability, HEK293T, Data1 [5]: 112.62; Cell viability, HEK293T, Data2 [5]: 114.23; Cell viability, HEK293T, Data3 [5]: 104.57
3 | AKDEKEL [TaPep1] | 108.54 | 105.88 | 114.46 | 105.28 | 2.15 | -3.64 | 10.96 | 3.53 | -4.53 | 9.07 | -19.14 | 13.72 | 6.22 | -3.13 | 97.71 | 96.99 | 94.60 | 101.54 | 94.74 | 92.35 | Cell viability, HPNE, Data2 [4]: 92.15; Cell viability, HPNE, Data3 [4]: 99.73; Average cell viability, HEK293T [5]: 101.23; Cell viability, HEK293T, Data1 [5]: 110.16; Cell viability, HEK293T, Data2 [5]: 98.99; Cell viability, HEK293T, Data3 [5]: 94.54
4 | ANGPE [TaPep69] | 106.78 | 116.65 | 94.82 | 108.87 | 1.23 | -4.62 | 7.32 | 3.75 | -2.38 | 11.54 | -19.29 | 9.06 | 5.65 | -4.24 | 102.58 | 91.72 | 108.65 | 107.37 | 101.93 | 107.52 | Cell viability, HPNE, Data2 [4]: 97.94; Cell viability, HPNE, Data3 [4]: 100.33; Average cell viability, HEK293T [5]: 99.97; Cell viability, HEK293T, Data1 [5]: 100.13; Cell viability, HEK293T, Data2 [5]: 102.30; Cell viability, HEK293T, Data3 [5]: 97.48
5 | APEELDA [TaPep36] | 102.92 | 111.17 | 103.39 | 94.22 | 0.55 | -6.54 | 7.85 | 3.11 | -0.61 | 17.06 | -18.92 | 13.68 | 5.62 | -8.13 | 101.78 | 93.96 | 95.80 | 115.59 | 113.58 | 114.11 | Cell viability, HPNE, Data2 [4]: 111.61; Cell viability, HPNE, Data3 [4]: 115.01; Average cell viability, HEK293T [5]: 103.41; Cell viability, HEK293T, Data1 [5]: 103.44; Cell viability, HEK293T, Data2 [5]: 102.11; Cell viability, HEK293T, Data3 [5]: 104.67
